Where two headings read alike, the source gives them in different places.
Biological target: T1, human Glucose-dependent Insulinotropic Polypeptide Receptor (hGIPR) (Homo sapiens, UniProt P48546)
T1 sequence (P48546 22-466): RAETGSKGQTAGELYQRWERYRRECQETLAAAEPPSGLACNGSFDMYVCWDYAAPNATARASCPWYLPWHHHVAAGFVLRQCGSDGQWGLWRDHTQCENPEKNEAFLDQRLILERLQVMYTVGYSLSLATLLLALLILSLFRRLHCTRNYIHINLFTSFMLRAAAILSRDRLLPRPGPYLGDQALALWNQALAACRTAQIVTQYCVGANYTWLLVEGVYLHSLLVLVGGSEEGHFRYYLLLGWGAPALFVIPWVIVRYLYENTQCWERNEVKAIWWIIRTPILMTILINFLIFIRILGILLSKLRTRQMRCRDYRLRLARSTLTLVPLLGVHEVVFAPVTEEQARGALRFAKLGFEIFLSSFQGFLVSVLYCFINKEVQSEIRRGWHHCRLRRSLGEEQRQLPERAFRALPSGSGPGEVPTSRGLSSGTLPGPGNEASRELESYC
Assay: Functional in vitro GIPR antagonist potency assay (cAMP HTRF, CHO-K1 cells stably expressing hGIPR, hGIP stimulation at EC80)
Assay type: cell-based
Experimental: The functional in vitro antagonist potency for test compounds was determined by monitoring intracellular cyclic adenosine monophosphate (cAMP) levels in Chinese hamster ovary (CHO)—K1 cells stably expressing the human Glucose-dependent Insulinotropic Polypeptide Receptor (hGIPR). Following agonist activation, hGIPR associates with the G-protein complex causing the Gas subunit to exchange bound guanosine diphosphate (GDP) for guanosine triphosphate (GTP), followed by dissociation of the Gas-GTP complex. The activated Gas subunit can couple to downstream effectors to regulate the levels of second messengers or cAMP within the cell. Thereby, determination of intracellular cAMP levels allows for pharmacological characterization. Intracellular cAMP levels are quantitated using a homogenous assay utilizing the Homogeneous Time Resolved Fluorescence (HTRF) technology from Perkin Elmer. […] The two entities compete for binding to a monoclonal anti-cAMP antibody labeled with cryptate. The specific signal is inversely proportional to the concentration of cAMP in the cells.
Test compounds were solubilized to a concentration of 30 mM in 100% dimethyl sulfoxide (DMSO). An 11-point dilution series using 1 in 3.162-fold serial dilutions was created in 100% DMSO with a top concentration of 8 mM. […]
Frozen assay-ready vials (at 1×10^7 cells/vial) of CHO-K1 cells stably expressing the Gs-coupled human GIPR receptor (Eurofins, DiscoverX, Cat No. 95-0146C2) were thawed, counted, and resuspended in assay buffer consisting of Hank's Balanced Salt Solution (HBSS, Lonza Cat No. 10-527) containing 20 mM (4-(2-hydroxyethyl)-1-piperazineethanesulfonic acid (HEPES, Lonza, Cat No. 17-737E), 0.1% bovine serum albumin (BSA, Sigma, Cat No. A7979), and 200 μM 3-isobutyl-1-methylxanthine (IBMX, Sigma, Cat No. 15879) at a density of 4×10^5 cells/mL. Cells were added to assay plate (5 μL/well of 4×10^5 cells/mL stock for 2,000 cells/well final) containing 50 nL of 200×FAC test compound, and incubated at 37° C. […] ([…]: 5% CO2), after which intracellular cAMP levels were quantified as per Perkin Elmer's protocol (5 μL of d2 and then 5 μL cryptate, incubated for 1 hour at room temperature). Emission spectra of samples were measured on a Pherastar plate reader (BMG Labtech Inc) using a HTRF protocol (excitation, 320 nm; emission, 665 nm/620 nm).
([…]: 5% CO2), with a micro-clime lid. […] ([…]: 5% CO2), after which intracellular cAMP levels were quantified and samples measured as described previously. […]
Data were analyzed using the ratio of fluorescence intensity at 620 and 665 nm for each well, extrapolated from the cAMP standard curve to express data as nanomolar (nM) cAMP for each well. […]

[1] = CHO-K1 cells stably expressing human GIPR, inhibition of hGIP (EC80)-stimulated cAMP, 2 h preincubation

IC50 [nM] | IC50 [1] [nM] | Structure (SMILES)
10 |  | CC(C)c1ccc(NC(=O)N2CC[C@H](C)[C@@H]2C(=O)Nc2ccc(-c3ccc(C(=O)O)cc3)cc2)cc1 (single isomer, unassigned) [Compound 34A, 4′-{[(3S)-3-Methyl-1-{[4-(propan-2-yl)phenyl]carbamoyl}-D-prolyl]amino}[1,1′-biphenyl]-4-carboxylic acid or 4′-{[(3R)-3-Methyl-1-{[4-(propan-2-yl)phenyl]carbamoyl}-L-prolyl]amino}[1,1′-biphenyl]-4-carboxylic acid]
4.6 |  | CC(C)c1ccc(NC(=O)N2CC[C@@H](C)[C@@H]2C(=O)Nc2ccc(-c3ccc(C(=O)O)cc3)cc2)cc1 (single isomer, unassigned) [Compound 35A, 4′-{[(3R)-3-Methyl-1-{[4-(propan-2-yl)phenyl]carbamoyl}-D-prolyl]amino}[1,1′-biphenyl]-4-carboxylic acid or 4′-{[(3S)-3-Methyl-1-{[4-(propan-2-yl)phenyl]carbamoyl}-L-prolyl]amino}[1,1′-biphenyl]-4-carboxylic acid]
 | 11 | Cc1cc(NC(=O)N2CCC[C@@H]2C(=O)Nc2ccc(-c3ccc(C(=O)O)nc3)cc2)ccc1C(C)C [Compound 19A, 5-{4-[(1-{[3-Methyl-4-(propan-2-yl)phenyl]carbamoyl}-D-prolyl)amino]phenyl}pyridine-2-carboxylic acid]
 | 7.8 | O=C(O)c1ccc(-c2ccc(NC(=O)[C@H]3CCCN3C(=O)Nc3ccc(C(F)(F)F)cc3)nc2)cc1 [Compound 31A, 4-{6-[(1-{[4-(Trifluoromethyl)phenyl]carbamoyl}-D-prolyl)amino]pyridin-3-yl}benzoic acid]

— patent publication US20250235460A1, “COMBINATION THERAPY USING GLUCOSE-DEPENDENT INSULINOTROPIC POLYPEPTIDE RECEPTOR ANTAGONIST COMPOUNDS AND GLP-1 RECEPTOR AGONIST COMPOUNDS” (Pfizer Inc., priority 2024, published 2025)
